Measured values taken from patent USRE48097E1, “Cephem compounds, their production and use” (priority 2015, dated 2020).
Converted amounts (≈) assume the structure as drawn.

Key:
[1] = system: K. pneumoniae 2689; assay: MIC against K. pneumoniae 2689; assay type: cell-based; conditions: K. pneumoniae 2689, KPC-2
Description: (§1) As shown, the foregoing composition was tested for minimum inhibitory concentration (MIC, μg/mL) against bacteria listed in Tables 2-3.

[2] = system: E. cloacae 566; assay: MIC against E. cloacae 566; assay type: cell-based; conditions: Table 2, E. cloacae 566, Caz R, IMP S
Description: (§2) Without limitation, the present cephem compounds alone, or in combination with one or more β-lactamase inhibitors, may provide improved antibacterial efficacy, particularly in antibiotic-resistant bacterial strains. It is believed that the present compounds may be structurally different from known compounds and, as a result, may be more basic in nature. It is an advantage that the present compounds may extend the spectrum of effective bacterial compounds, particularly against previously-resistant bacteria (e.g. ESKAPE organisms), and/or gram negative bacteria, without significant side effects. In a preferred embodiment, the present cephem compound may comprise reference compound ceftazidime, which may be used alone, or in combination with one or more β-lactamase inhibitors, such as NXL-104. As shown, the foregoing composition was tested for minimum inhibitory concentration (MIC, μg/mL) against bacteria listed in Tables 2-3.

[3] = system: K. pneumoniae 4107; assay: MIC against K. pneumoniae 4107; assay type: cell-based; conditions: K. pneumoniae 4107, KPC-2, TEM-1, SHV-11
Description: as §1

[4] = system: C. freundii 579; assay: MIC against C. freundii 579; assay type: cell-based; conditions: Table 2, C. freundii 579, Caz R, IMP S
Description: as §2

[5] = system: S. pneumoniae 2406; assay: MIC against S. pneumoniae 2406; assay type: cell-based; conditions: Table 2, S. pneumoniae 2406, Pen S
Description: as §2

[6] = system: K. pneumoniae 2697; assay: MIC against K. pneumoniae 2697; assay type: cell-based; conditions: Table 2, K. pneumoniae 2697, IMP-4
Description: as §2

[7] = system: K. pneumoniae 2711; assay: MIC against K. pneumoniae 2711; assay type: cell-based; conditions: Table 3, K. pneumoniae 2711, KPC-3, VIM-1
Description: as §1

[8] = system: S. pneumoniae ATCC 700673; assay: MIC against S. pneumoniae ATCC 700673; assay type: cell-based; conditions: Table 2, S. pneumoniae ATCC 700673, Pen R
Description: as §2

[9] = system: E. cloacae 2710; assay: MIC against E. cloacae 2710; assay type: cell-based; conditions: Table 3, E. cloacae 2710, KPC-3, VIM-1
Description: as §1

[10] = system: E. coli 4102; assay: MIC against E. coli 4102; assay type: cell-based; conditions: Table 2, E. coli 4102, CTX-M-14
Description: as §2

[11] = system: E. coli 4080; assay: MIC against E. coli 4080; assay type: cell-based; conditions: Table 2, E. coli 4080, TEM-10
Description: as §2

[12] = system: S. pneumoniae 2405; assay: MIC against S. pneumoniae 2405; assay type: cell-based; conditions: Table 2, S. pneumoniae 2405, Pen S
Description: as §2

[13] = system: E. cloacae 2705; assay: MIC against E. cloacae 2705; assay type: cell-based; conditions: Table 3, E. cloacae 2705, VIM-1, KPC-3type
Description: as §1

[14] = system: S. aureus 3147; assay: MIC against S. aureus 3147; assay type: cell-based; conditions: Table 2, S. aureus 3147, MSSA
Description: as §2

[15] = system: K. pneumoniae 2690; assay: MIC against K. pneumoniae 2690; assay type: cell-based; conditions: Table 3, K. pneumoniae 2690, KPC-2
Description: as §1

[16] = system: E. cloacae 2704; assay: MIC against E. cloacae 2704; assay type: cell-based; conditions: Table 2, E. cloacae 2704, P99
Description: as §2

[17] = system: C. freundii 2487; assay: MIC against C. freundii 2487; assay type: cell-based; conditions: Table 2, C. freundii 2487, Caz R, IMP S
Description: as §2

[18] = system: K. pneumoniae 4106; assay: MIC against K. pneumoniae 4106; assay type: cell-based; conditions: K. pneumoniae 4106, KPC-3, TEM-1, SHV-12, SHV-141
Description: as §1

[19] = system: C. freundii 15; assay: MIC against C. freundii 15; assay type: cell-based; conditions: Table 2, C. freundii 15, Caz R, IMP S
Description: as §2

[20] = system: S. aureus3137; assay: MIC against S. aureus3137; assay type: cell-based, S. aureus; conditions: Table 2, S. aureus3137, MSSA
Description: as §2

[21] = system: E. cloacae 2689; assay: MIC against E. cloacae 2689; assay type: cell-based; conditions: Table 3, E. cloacae 2689, KPC-2
Description: as §1

[22] = system: S. pneumoniae 2403; assay: MIC against S. pneumoniae 2403; assay type: cell-based; conditions: Table 2, S. pneumoniae 2403, Pen S
Description: as §2

[23] = system: E. cloacae 2044; assay: MIC against E. cloacae 2044; assay type: cell-based; conditions: Table 2, E. cloacae 2044, Caz S, IMP S
Description: as §2

[24] = Table 2, in combination with NXL-104
[25] = Table 3, in combination with NXL-104

**Q.** With `CC(C)(O/N=C(\C(=O)N[C@@H]1C(=O)N2C(C(=O)[O-])=C(C[n+]3ccccc3)CS[C@H]12)c1csc(N)n1)C(=O)O` [CAZ, ceftazidime, reference compound] as the compound, how does the MIC ([1]; Table 2, alone) read?
**A.** 32.00 µg/mL (≈ 58.5 µM)

**Q.** And the MIC [1, 24]?
**A.** 4.00 µg/mL

**Q.** What about the MIC ([1]; Table 3, alone) of the same compound?
**A.** >32 µg/mL

**Q.** And the MIC [1, 25]?
**A.** 4 µg/mL

**Q.** What about the MIC ([2]; alone) of the same compound?
**A.** >32 µg/mL

**Q.** What about the MIC ([2]; in combination with NXL-104) of the same compound?
**A.** 2.00 µg/mL

**Q.** What about the MIC ([3]; Table 2, alone) of the same compound?
**A.** 32.00 µg/mL (≈ 58.5 µM)

**Q.** And the MIC [3, 24]?
**A.** 8.00 µg/mL

**Q.** What about the MIC ([3]; Table 3, alone) of the same compound?
**A.** >32 µg/mL

**Q.** And the MIC [3, 25]?
**A.** 4 µg/mL

**Q.** What about the MIC ([4]; alone) of the same compound?
**A.** 4.00 µg/mL

**Q.** What about the MIC ([4]; in combination with NXL-104) of the same compound?
**A.** 2.00 µg/mL

**Q.** What about the MIC ([5]; alone) of the same compound?
**A.** 0.12 µg/mL

**Q.** And the MIC ([5]; in combination with NXL-104)?
**A.** 0.12 µg/mL

**Q.** What about the MIC ([6]; alone) of the same compound?
**A.** 8.00 µg/mL

**Q.** What about the MIC ([6]; in combination with NXL-104) of the same compound?
**A.** 2.00 µg/mL

**Q.** And the MIC ([7]; alone)?
**A.** >32 µg/mL

**Q.** What about the MIC ([7]; in combination with NXL-104) of the same compound?
**A.** 2 µg/mL

**Q.** What about the MIC ([8]; alone) of the same compound?
**A.** 16.00 µg/mL

**Q.** And the MIC ([8]; in combination with NXL-104)?
**A.** 8.00 µg/mL

**Q.** What about the MIC ([9]; alone) of the same compound?
**A.** >32 µg/mL

**Q.** What about the MIC ([9]; in combination with NXL-104) of the same compound?
**A.** >32 µg/mL

**Q.** And the MIC ([10]; alone)?
**A.** 1.00 µg/mL

**Q.** And the MIC ([10]; in combination with NXL-104)?
**A.** 0.25 µg/mL

**Q.** And the MIC ([11]; alone)?
**A.** 16.00 µg/mL

**Q.** And the MIC ([11]; in combination with NXL-104)?
**A.** 4.00 µg/mL

**Q.** And the MIC ([12]; alone)?
**A.** 0.25 µg/mL

**Q.** And the MIC ([12]; in combination with NXL-104)?
**A.** 0.25 µg/mL

**Q.** What about the MIC ([13]; alone) of the same compound?
**A.** >32 µg/mL

**Q.** And the MIC ([13]; in combination with NXL-104)?
**A.** >32 µg/mL

**Q.** What about the MIC ([14]; alone) of the same compound?
**A.** 8.00 µg/mL

**Q.** What about the MIC ([14]; in combination with NXL-104) of the same compound?
**A.** 8.00 µg/mL

**Q.** What about the MIC ([15]; alone) of the same compound?
**A.** >32 µg/mL

**Q.** And the MIC ([15]; in combination with NXL-104)?
**A.** 4 µg/mL

**Q.** What about the MIC ([16]; alone) of the same compound?
**A.** 16.00 µg/mL

**Q.** What about the MIC ([16]; in combination with NXL-104) of the same compound?
**A.** 4.00 µg/mL

**Q.** What about the MIC ([17]; alone) of the same compound?
**A.** 16.00 µg/mL

**Q.** And the MIC ([17]; in combination with NXL-104)?
**A.** 8.00 µg/mL

**Q.** And the MIC ([18]; Table 2, alone)?
**A.** 16.00 µg/mL (≈ 29.3 µM)

**Q.** And the MIC [18, 24]?
**A.** 4.00 µg/mL

**Q.** What about the MIC ([18]; Table 3, alone) of the same compound?
**A.** >32 µg/mL

**Q.** And the MIC [18, 25]?
**A.** 8 µg/mL

**Q.** What about the MIC ([19]; alone) of the same compound?
**A.** 8.00 µg/mL

**Q.** What about the MIC ([19]; in combination with NXL-104) of the same compound?
**A.** 2.00 µg/mL

**Q.** What about the MIC ([20]; alone) of the same compound?
**A.** 32.00 µg/mL

**Q.** And the MIC ([20]; in combination with NXL-104)?
**A.** 32.00 µg/mL

**Q.** And the MIC ([21]; alone)?
**A.** >32 µg/mL

**Q.** What about the MIC ([21]; in combination with NXL-104) of the same compound?
**A.** 2 µg/mL

**Q.** What about the MIC ([22]; alone) of the same compound?
**A.** 0.12 µg/mL

**Q.** And the MIC ([22]; in combination with NXL-104)?
**A.** 0.12 µg/mL

**Q.** What about the MIC ([23]; alone) of the same compound?
**A.** 1.00 µg/mL

**Q.** What about the MIC ([23]; in combination with NXL-104) of the same compound?
**A.** 0.25 µg/mL
